Measured values reported in patent US6737383B1, “Herbicidal oxadiazolidines” (priority 1999, dated 2004).

Legend:
crabgrass = assay: Test B pre/postemergence crabgrass; type: in vivo, Digitaria sanguinalis
Procedure, shortened: (§1)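 Test chemicals in a non-phytotoxic solvent mixture with surfactant were sprayed preemergence onto planted seeds and postemergence onto plants 2 to 18 cm tall (1- to 4-leaf stage). After twelve to sixteen days in a greenhouse, injury was visually rated against untreated controls from 0 (no effect) to 10 (complete control).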

wild oat = assay: Test B pre/postemergence wild oat; type: in vivo, Avena fatua
Procedure, shortened: as §1

bedstraw = assay: Test B pre/postemergence bedstraw; type: in vivo, Galium aparine
Procedure, shortened: as §1

sugar beet = assay: Test B pre/postemergence sugar beet; type: in vivo, Beta vulgaris
Procedure, shortened: as §1

purple nutsedge = assay: Test B pre/postemergence purple nutsedge; type: in vivo, Cyperus rotundus
Procedure, shortened: as §1

velvetleaf = assay: Test B pre/postemergence velvetleaf; type: in vivo, Abutilon theophrasti
Procedure, shortened: as §1

surinam grass = assay: Test B pre/postemergence surinam grass; type: in vivo, Brachiaria decumbens
Procedure, shortened: as §1

soybean = assay: Test B pre/postemergence soybean; type: in vivo, Glycine max
Procedure, shortened: as §1

rape = assay: Test B pre/postemergence rape; type: in vivo, Brassica napus
Procedure, shortened: as §1

blackgrass = assay: Test B pre/postemergence blackgrass; type: in vivo, Alopecurus myosuroides
Procedure, shortened: as §1

smallflower flatsedge = assay: Test B flood test smallflower flatsedge; type: in vivo, Cyperus difformis
Procedure, shortened: (§2)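 Flood test on plants grown to the 2-leaf stage; treated plants kept in greenhouse twelve to sixteen days, then visually rated against controls on a 0 (no effect) to 10 (complete control) scale.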

cocklebur = assay: Test B pre/postemergence cocklebur; type: in vivo, Xanthium strumarium
Procedure, shortened: as §1

pigweed = assay: Test B pre/postemergence pigweed; type: in vivo, Amaranthus retroflexus
Procedure, shortened: as §1

wheat = assay: Test B pre/postemergence wheat; type: in vivo, Triticum aestivum
Procedure, shortened: as §1

bamyardgrass = assay: Test B flood test barnyardgrass; type: in vivo, Echinochloa crus-galli
Procedure, shortened: as §2

corn = assay: Test B pre/postemergence corn; type: in vivo, Zea mays
Procedure, shortened: as §1

[1] = Postemergence, Rate 62 g/ha, scale of 0 to 10, 0 is no effect, 10 is complete control
[2] = Postemergence, Rate 125 g/ha, scale 0 to 10, 0 is no effect, 10 is complete control
[3] = Postemergence, Rate 500 g/ha, scale 0 to 10, 0 is no effect, 10 is complete control
[4] = Preemergence, Rate 62 g/ha, scale of 0 to 10 where 0 is no effect and 10 is complete control
[5] = Preemergence, Rate 125 g/ha, scale 0 to 10, 0 is no effect, 10 is complete control
[6] = Preemergence, Rate 500 g/ha, scale of 0 to 10 where 0 is no effect and 10 is complete control
[7] = Rate 250 g/ha, Postemergence, scale of 0 to 10 where 0 is no effect and 10 is complete control
[8] = Rate 62 g/ha, flood test species, Pre-emergence, visual evaluation after twelve to sixteen days
[9] = Rate 125 g/ha, under heading Pre-emergence, flood test species, visual evaluation after twelve to sixteen days
[10] = Rate 250 g/ha, Pre-emergence (flood test species), scale 0 to 10, 0 is no effect, 10 is complete control
[11] = Rate 500 g/ha, Pre-emergence section of Table B, 0 to 10 scale (0 no effect, 10 complete control)

CCCCCn1c(=O)on(C(=O)N(c2ccc(Cl)cc2)C(C)C)c1=O [Compound 528]
8: Plant response rating, Bedstraw (bedstraw; [3])
4: Velvetleaf plant response rating (velvetleaf; [2]) | Plant response rating, Velvetleaf (velvetleaf; [7])
0: Wild oats plant response rating (wild oat; [1]) | Wild oats plant response rating (wild oat; [2]) | Plant response rating, Wild oats (wild oat; [3]) | Plant response rating, Wild oats (wild oat; [4]) | Wild oats plant response rating (wild oat; [5]) | Wild oats plant response rating (0 to 10 scale) (wild oat; Preemergence, Rate 250 g/ha) | Plant response rating, Wild oats (wild oat; [7]) | Bedstraw plant response rating (bedstraw; [1]) | Bedstraw plant response rating (bedstraw; [2]) | Plant response rating, Bedstraw (bedstraw; [4]) | Bedstraw plant response rating (bedstraw; [5]) | Bedstraw plant response rating (0 to 10 scale) (bedstraw; Preemergence, Rate 250 g/ha) | Plant response rating, Bedstraw (bedstraw; [7]) | Sugarbeets plant response rating (sugar beet; [1]) | Sugarbeets plant response rating (sugar beet; [2]) | Plant response rating, Sugarbeets (sugar beet; [4]) | Sugarbeets plant response rating (sugar beet; [5]) | Sugarbeets plant response rating (0 to 10 scale) (sugar beet; Preemergence, Rate 250 g/ha) | Plant response rating, Sugarbeets (sugar beet; [7]) | Nutsedge plant response rating (purple nutsedge; [2]) | Plant response rating, Nutsedge (purple nutsedge; [4]) | Nutsedge plant response rating (purple nutsedge; [5]) | Nutsedge plant response rating (0 to 10 scale) (purple nutsedge; Preemergence, Rate 250 g/ha) | Nutsedge plant response rating (purple nutsedge; [6]) | Plant response rating, Nutsedge (purple nutsedge; [7]) | Velvetleaf plant response rating (velvetleaf; [1]) | Plant response rating, Velvetleaf (velvetleaf; [4]) | Velvetleaf plant response rating (velvetleaf; [5]) | Velvetleaf plant response rating (0 to 10 scale) (velvetleaf; Preemergence, Rate 250 g/ha) | Velvetleaf plant response rating (velvetleaf; [6]) | B. signalgrass plant response rating (surinam grass; [1]) | B. signalgrass plant response rating (surinam grass; [2]) | Plant response rating, B. signalgrass (surinam grass; [3]) | Plant response rating, B. signalgrass (surinam grass; [4]) | B. signalgrass plant response rating (surinam grass; [5]) | B. signalgrass plant response rating (0 to 10 scale, 0 is no effect, 10 is complete control) (surinam grass; Preemergence, Rate 250 g/ha) | Plant response rating, B. signalgrass (surinam grass; [7]) | Plant response rating, Soybean (soybean; [4]) | Soybean plant response rating (soybean; [5]) | Soybean plant response rating (0 to 10 scale) (soybean; Preemergence, Rate 250 g/ha) | Soybean plant response rating (soybean; [6]) | Rape plant response rating (rape; [1]) | Rape plant response rating (rape; [2]) | Plant response rating, Rape (rape; [4]) | Rape plant response rating (rape; [5]) | Rape plant response rating (0 to 10 scale) (rape; Preemergence, Rate 250 g/ha) | Blackgrass plant response rating (blackgrass; [1]) | Blackgrass plant response rating (blackgrass; [2]) | Plant response rating, Blackgrass (blackgrass; [4]) | Blackgrass plant response rating (blackgrass; [5]) | Blackgrass plant response rating (0 to 10 scale) (blackgrass; Preemergence, Rate 250 g/ha) | Plant response rating, Blackgrass (blackgrass; [7]) | Plant response rating, S. Flatsedge (0 to 10 scale, 0 is no effect, 10 is complete control) (smallflower flatsedge; [8]) | S. Flatsedge plant response rating (0 to 10 scale, 0 is no effect, 10 is complete control) (smallflower flatsedge; [9]) | S. Flatsedge plant response rating (smallflower flatsedge; [10]) | S. Flatsedge plant response rating (smallflower flatsedge; [11]) | Cocklebur plant response rating (cocklebur; [1]) | Cocklebur plant response rating (cocklebur; [2]) | Plant response rating, Cocklebur (cocklebur; [4]) | Cocklebur plant response rating (cocklebur; [5]) | Cocklebur plant response rating (0 to 10 scale) (cocklebur; Preemergence, Rate 250 g/ha) | Cocklebur plant response rating (cocklebur; [6]) | Redroot pigweed plant response rating (pigweed; [1]) | Redroot pigweed plant response rating (pigweed; [2]) | Plant response rating, Redroot pigweed (pigweed; [3]) | Plant response rating, Redroot pigweed (pigweed; [4]) | Redroot pigweed plant response rating (pigweed; [5]) | Redroot pigweed plant response rating (0 to 10 scale) (pigweed; Preemergence, Rate 250 g/ha) | Plant response rating, Redroot pigweed (pigweed; [7]) | Wheat plant response rating (wheat; [1]) | Wheat plant response rating (wheat; [2]) | Plant response rating, Wheat (wheat; [3]) | Plant response rating, Wheat (wheat; [4]) | Wheat plant response rating (wheat; [5]) | Wheat plant response rating (0 to 10 scale) (wheat; Preemergence, Rate 250 g/ha) | Plant response rating, Wheat (wheat; [7]) | Plant response rating, Barnyardgrass (0 to 10 scale, 0 is no effect, 10 is complete control) (bamyardgrass; [8]) | Barnyardgrass plant response rating (0 to 10 scale, 0 is no effect, 10 is complete control) (bamyardgrass; [9]) | Barnyardgrass plant response rating (bamyardgrass; [10]) | Barnyardgrass plant response rating (bamyardgrass; [11]) | Corn plant response rating (corn; [1]) | Corn plant response rating (corn; [2]) | Plant response rating, Corn (corn; [3]) | Plant response rating, Corn (corn; [4]) | Corn plant response rating (corn; [5]) | Corn plant response rating (0 to 10 scale) (corn; Preemergence, Rate 250 g/ha) | Corn plant response rating (corn; [6]) | Plant response rating, Corn (corn; [7])
2: Plant response rating, Sugarbeets (sugar beet; [3]) | Plant response rating, Cocklebur (cocklebur; [7])
3: Crabgrass plant response rating (crabgrass; [1]) | Soybean plant response rating (soybean; [1]) | Soybean plant response rating (soybean; [2]) | Plant response rating, Rape (rape; [3]) | Plant response rating, Rape (rape; [7]) | Plant response rating, Cocklebur (cocklebur; [3])
9: Crabgrass plant response rating (crabgrass; [2]) | Crabgrass plant response rating (crabgrass; [5]) | Plant response rating, Crabgrass (crabgrass; [7])
7: Plant response rating, Crabgrass (crabgrass; [4])
10: Plant response rating, Crabgrass (crabgrass; [3]) | Crabgrass plant response rating (0 to 10 scale) (crabgrass; Preemergence, Rate 250 g/ha) | Crabgrass plant response rating (crabgrass; [6])
5: Plant response rating, Velvetleaf (velvetleaf; [3]) | Plant response rating, Soybean (soybean; [3]) | Plant response rating, Soybean (soybean; [7]) | Plant response rating, Blackgrass (blackgrass; [3])
6: Plant response rating, Nutsedge (purple nutsedge; [3])
